According to US11753370B2, “Methods of making deuterium-enriched N-acetylcysteine amide (d-NACA) and (2R, 2R′)-3,3′-disulfanediyl bis(2-acetamidopropanamide) (diNACA) and using d-NACA and diNACA to treat diseases involving oxidative stress” (Nacuity Pharmaceuticals, Inc., priority 2017, dated 2023):

Experiment: Plasma half-life
Assay type: in vivo
Description: Metabolism. An advantage of diNACA over N-acetylsysteine amide (NACA) is the reduction in metabolism rate compared to NACA. DiNACA has a longer plasma half-life than NACA. The major metabolites of diNACA are NACA and N-acetylcysteine (NAC) afforded by cleavage of the sulfur bond of diNACA to yield NACA and NAC. Dosing the patient with diNACA affords high greater bioavailability in tissues like the retina and aqueous humore compared to dosing with NACA, presumably due the higher lipophilicity of diNACA compared to NACA and the resulting in vivo cleavage to two NACA-like molecules, thereby effectively increasing the half-life of NACA in the body.
Metabolism. Deuterium-inhibition of NACA metabolism. An advantage of NACA-d3 is the reduction in metabolism rate compared to the non-deuterated NACA. Non-deuterated NACA has a plasma half-life of approximately 2 hours in fasting subjects and approximately 6 hours in fed subjects. The major metabolite of NACA is N-acetylcysteine (NAC) afforded by deamidation of the primary amide functional group of NACA by tissue (e.g., plasma or other tissue) amidase. Another metabolite of NACA is cysteine afforded by (a) deamidation of the primary amide functional group of NACA by tissue (e.g., plasma or other tissue) amidase and (b) de-acetylation of the secondary amide functional group of NACA by tissue (e.g., plasma or other tissue) amidase. Replacement of the acetyl methyl group hydrogen atoms with deuterium atoms slows down the action of tissue amidases on both (primary and secondary) amide functional groups of NACA-d3, thereby prolonging its residence time in the body, i.e., increasing the half-life in the body.

Compound	plasma half-life compared to NACA (comparison with NACA)	plasma half-life (fasting subjects)	plasma half-life (fed subjects)
CC(=O)N[C@@H](CSSC[C@H](NC(C)=O)C(N)=O)C(N)=O [DiNACA, (2R,2R′)-3,3′-disulfanediyl bis(2-acetamidopropanamide)]	longer	–	–
N-acetylcysteine amide [NACA]	–	approximately 2 hours	approximately 6 hours
